Consider nine compounds from patent US20110098283A1, “3-CINNOLINECARBOXAMIDE DERIVATIVES AND THEIR USE FOR TREATING CANCER” (ASTRAZENECA AB, priority 2007, published 2011).

This assay addresses T1, CSF-1R (His-tagged kinase domain, amino acids 568-912) (Homo sapiens, UniProt P07333).
T1 construct: The His-tagged kinase domain of CSF-1R (i.e., amino acids 568-912, GeneBank ID NM_005211); His; made in house; host or cells: baculovirus infected SF+Express insect cells
T1 sequence (P07333 568-912): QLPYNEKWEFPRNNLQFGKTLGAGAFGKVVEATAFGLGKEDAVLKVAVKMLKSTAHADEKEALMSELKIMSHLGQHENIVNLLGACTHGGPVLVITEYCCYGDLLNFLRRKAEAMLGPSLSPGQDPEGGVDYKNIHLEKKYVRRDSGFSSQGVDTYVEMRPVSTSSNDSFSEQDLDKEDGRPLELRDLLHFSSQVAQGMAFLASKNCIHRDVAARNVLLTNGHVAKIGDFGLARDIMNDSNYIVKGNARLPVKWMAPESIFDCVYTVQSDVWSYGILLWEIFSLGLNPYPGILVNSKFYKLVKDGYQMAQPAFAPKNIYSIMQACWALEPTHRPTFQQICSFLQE
Put plainly: Assay 2: CSF1R in-vitro AlphaScreen Assay. Type of assay: biochemical. As to conditions: phosphorylation of pEY substrate; 0.46 nM CSF-1R, 12 mM ATP in mix. As for the experimental part:
Assay 2: CSF1R in-vitro AlphaScreen Assay
Activity of purified CSF-1R was determined in-vitro using an Amplified Luminescent Proximity Homogeneous Assay (ALPHA) (Perkin Elmer, Mass.), which measures phosphorylation of CSF-1R substrate, biotinylated poly-glutamine-tyrosine peptide (pEY-HTRF CisBio 61GT0BLD), as described below. The His-tagged kinase domain of CSF-1R (i e, amino acids 568-912, GeneBank ID NM_005211) was purified from baculovirus infected SF+Express insect cells (1.4×10^6 cells/ml), French pressed and chromatographed through subsequent QIAgen Ni-NTA, Superflow Mono Q HR 10/10, and Superdex 200 SEC columns.
The phosphorylation of the CSF-1R substrate in the presence and absence of the compound of interest was determined. Briefly, 5 ul of Enzyme/Substrate/adenosine triphosphate (ATP) mix consisting of 0.46 nM of purified CSF-1R, 12 nM pEY substrate, and 12 mM ATP in 1.2× buffer was preincubated with 2 ul of compound for 20 minutes at 25° C. Reactions were initiated with 5 ul of Metal mix consisting of 24 mM MgCl2 in 1.2× buffer and incubated at 25° C. for 90 minutes and reactions were stopped by addition of 5 ul of Detection mix consisting of 20 mM HEPES, 102 mM ethylenediamine tetraacetic acid, 1.65 mg/ml BSA, 136 mM NaCl, 40 ug/ml Streptavidin donor beads (Perkin Elmer, Mass., Catalog #6760002), and 40 ug/ml phosphotyrosine-specific antibody coated acceptor beads (Perkin Elmer, Mass., Catalog #6760620). Plates were incubated at 25° C. for 18 hours in the dark. Phosphorylated substrate was detected by an EnVision plate reader (Perkin Elmer) 680 nm excitation, 520-620 nm emission. Data was graphed and IC50s calculated using Excel Fit (Microsoft).
Compound `COc1cc2nnc(C(N)=O)c(Nc3ccc(C)cc3F)c2cc1N1CCN2CCCC2C1` (stereo not drawn) [Example 33, 4-[(2-Fluoro-4-methylphenyl)amino]-6-(hexahydropyrrolo[1,2-a]pyrazin-2(1H)-yl)-7-methoxycinnoline-3-carboxamide] displayed a concentration for half-maximal inhibition (IC50) of 12 nM.
With `COc1cc2nnc(C(N)=O)c(Nc3ccc(C)cc3F)c2cc1C1=CCN(CCO)CC1` [Example 34, 4-[(2-Fluoro-4-methylphenyl)amino]-6-[1-(2-hydroxyethyl)-1,2,3,6-tetrahydropyridin-4-yl]-7-methoxycinnoline-3-carboxamide] the figure was 5 nM.
For `COc1cc2nnc(C(N)=O)c(Nc3ccc(C)cc3F)c2cc1N1C[C@@H](C)N[C@@H](C)C1` [Example 36, 6-[(3R,5S)-3,5-Dimethylpiperazin-1-yl]-4-[(2-fluoro-4-methylphenyl)amino]-7-methoxycinnoline-3-carboxamide] the value was under 3 nM; for `COc1cc2nnc(C(N)=O)c(Nc3ccc(C)cc3F)c2cc1N1C[C@@H](C)O[C@@H](C)C1` [Example 37, 6-[(2R,6S)-2,6-Dimethylmorpholin-4-yl]-4-[(2-fluoro-4-methylphenyl)amino]-7-methoxycinnoline-3-carboxamide], 71 nM.
`COc1cc2nnc(C(N)=O)c(Nc3ccc(C)cc3F)c2cc1N1CCN(CC(F)(F)F)CC1` [Example 42, 4-[(2-Fluoro-4-methylphenyl)amino]-7-methoxy-6-[4-(2,2,2-trifluoroethyl)piperazin-1-yl]cinnoline-3-carboxamide] gave an IC50 of 7 nM.
For `CCOc1cc2nnc(C(N)=O)c(Nc3ccc(C)cc3F)c2cc1N1CCN(CCO)CC1` [Example 43, 7-Ethoxy-4-[(2-fluoro-4-methylphenyl)amino]-6-[4-(2-hydroxyethyl)piperazin-1-yl]cinnoline-3-carboxamide], it took 3 nM to reach half-maximal inhibition (IC50).
With `COc1cc2nnc(C(N)=O)c(Nc3ccc(F)cc3F)c2cc1N1C[C@@H](C)N[C@@H](C)C1` [Example 44, 4-[(2,4-Difluorophenyl)amino]-6-[(3R,5S)-3,5-dimethylpiperazin-1-yl]-7-methoxycinnoline-3-carboxamide] the figure was 16 nM; with `COc1cc2nnc(C(N)=O)c(Nc3cccc(Cl)c3F)c2cc1N1C[C@@H](C)N[C@@H](C)C1` [Example 45, 4-[(3-Chloro-2-fluorophenyl)amino]-6-[(3R,5S)-3,5-dimethylpiperazin-1-yl]-7-methoxycinnoline-3-carboxamide], 6 nM; with `COc1cc2nnc(C(N)=O)c(Nc3ccc(C)cc3F)c2cc1C1CCN(S(C)(=O)=O)CC1` [Example 50, 4-[(2-Fluoro-4-methylphenyl)amino]-7-methoxy-6-[1-(methylsulfonyl)piperidin-4-yl]cinnoline-3-carboxamide], 33 nM.
